Results on 28 compounds are retold here after patent US7915293B2, “Ubiquitin ligase inhibitors” (Rigel Pharmaceuticals, Inc., priority 2003, dated 2011).

This assay deals with E3 (His-APC11/APC2-"APC") (Homo sapiens, UniProt Q9NYG5+Q9UJX6). In words: Plate-based E3 ligase assay (APC FLAG), auto-ubiquitination. Details: key: “+” indicates that the compound exibits inhibitory activity; “−” indicates that low or no inhibitory activity was observed. It is filed as biochemical. Particulars: 8 concentrations tested. As for the experimental part: E3 (His-APC11/APC2-“APC”) auto-ubiquitination was measured as described in U.S. patent application Ser. No. 09/826,312 (Publication No. US-2002-0042083-A1), which is incorporated herein in its entirety. Details of the protocol are described below. Activity in the presence of the compound was determined relative to a parallel control in which only DMSO was added. Values of the IC50 were typically determined using 6 or 8 different concentrations of the compound, although as few as 2 concentrations may be used to approximate the IC50 value.
Sequence of E3 (His-APC11/APC2-"APC") (Q9NYG5 whole entry): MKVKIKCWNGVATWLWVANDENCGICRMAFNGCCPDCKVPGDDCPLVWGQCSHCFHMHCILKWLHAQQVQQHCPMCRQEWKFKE
Sequence of E3 (His-APC11/APC2-"APC") (Q9UJX6 whole entry): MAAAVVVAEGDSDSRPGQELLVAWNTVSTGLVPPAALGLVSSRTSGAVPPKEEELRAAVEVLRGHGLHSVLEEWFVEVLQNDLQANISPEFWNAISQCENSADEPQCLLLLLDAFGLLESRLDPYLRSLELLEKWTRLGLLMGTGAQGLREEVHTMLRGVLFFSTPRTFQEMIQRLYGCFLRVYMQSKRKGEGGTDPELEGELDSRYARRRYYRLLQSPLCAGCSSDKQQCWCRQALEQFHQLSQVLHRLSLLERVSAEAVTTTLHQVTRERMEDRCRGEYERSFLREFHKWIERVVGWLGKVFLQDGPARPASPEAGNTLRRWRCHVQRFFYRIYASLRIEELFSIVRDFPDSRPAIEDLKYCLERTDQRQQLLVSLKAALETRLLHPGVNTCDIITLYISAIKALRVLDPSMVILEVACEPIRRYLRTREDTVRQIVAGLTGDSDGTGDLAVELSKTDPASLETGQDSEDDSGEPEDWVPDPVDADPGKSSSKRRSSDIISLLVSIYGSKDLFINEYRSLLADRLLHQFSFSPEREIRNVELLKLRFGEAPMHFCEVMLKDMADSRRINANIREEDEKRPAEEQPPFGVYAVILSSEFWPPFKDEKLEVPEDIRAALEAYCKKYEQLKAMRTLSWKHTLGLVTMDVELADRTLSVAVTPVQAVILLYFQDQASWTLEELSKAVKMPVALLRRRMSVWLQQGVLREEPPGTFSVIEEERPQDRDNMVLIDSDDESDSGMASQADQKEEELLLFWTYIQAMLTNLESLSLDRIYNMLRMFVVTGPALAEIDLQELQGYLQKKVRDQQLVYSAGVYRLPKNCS
Nickel-coated 96-well plates (Pierce 15242) were blocked for 1 hour with 100 μl of blocking buffer at room temperature. The plates were washed 4 times with 225 μl of 1×PBS and 80 μl of the reaction buffer were added that contained 100 ng/well of Flag-ubiquitin. To this, 10 μl of the test compound diluted in DMSO were added. After the test compound was added, 10 μl of E1 (human), E2 (Ubch5c), and APC in Protein Buffer was added to obtain a final concentration of 5 ng/well of E1, 20 ng/well of E2 and 100 ng/well of APC. The plate were shaken for 10 minutes and incubated at room temperature for 1 hour. After incubation, the plates were washed 4 times with 225 μl of 1×PBS and 100 μl/well of Antibody Mix were added to each well. The plates were incubate at room temperature for another hour after which they were washed 4 times with 225 μl of 1×PBS and 100 μl/well of Lumino substrate were added to each well. The luminescence was measured by using a BMG luminescence microplate reader.
To prepare the Blocking Buffer (1 liter; 1% Casein in 1×PBS), 10 grams of Casein (Hammersten Grade Casein from Gallard-Schlesinger Inc. #440203) were placed into 1 liter of 1×PBS, stirred on a hot plate and kept between 50-60° C. for an hour. The buffer was allowed to cool to room temperature and then filtered using a Buchner Funnel (Buchner filter funnel 83 mm 30310-109) and Whatman filter paper (Whatman Grade No. 1 Filter paper 28450-070). It was stored at 4° C. until used.
The reaction buffer consisted of 62.5 mM Tris pH 7.6 (Trizma Base—Sigma T-8524), 3 mM MgCl2 (Magnesium Chloride—Sigma M-2393), 1 mM DTT (Sigma D-9779), 2.5 mM ATP (Roche Boehringer Mann Corp. 635-316), 100 ng/well of Flag-ubiquitin, 0.1% BSA (Sigma A-7906), and 0.05% Tween-20 (Sigma P-7949).
The Protein Buffer consisted of 20 mM Tris pH 7.6, 10% glycerol (Sigma G-5516) and 1 mM DTT.
The antibody mix consisted of 0.25% BSA (Sigma A-7906) in 1×PBS, 1/50,000 anti-Flag (Sigma F-3165), 1/100,000 of anti-Mouse IgG-HRP (Jackson Immunoresearch #115-035-146).
The substrate mix consisted of SuperSignal Substrate from Pierce (catalog number 37070ZZ) and was prepared by mixing 100 ml of the peroxide solution, 100 ml of the enhancer solution and 100 ml of Milli-Q® water.
`O=[N+]([O-])c1ccc(Oc2c(Cl)cc(S(=O)(=O)NCC3CC3)cc2Cl)c(Cl)c1` [Compound 120, N-(Cyclopropylmethyl)-3,5-Dichloro-4-(2-Chloro-4-Nitrophenoxy) Benzenesulfonamide]: the “APC Flag 8 pt” value was “+”.

For `NS(=O)(=O)c1cc(Cl)c(Oc2ccc([N+](=O)[O-])cc2Cl)c(Cl)c1` [Compound 124, 3,5-dichloro-4-(2-chloro-4-nitrophenoxy)benzenesulfonamide], the “APC Flag 8 pt” value is on record as “+”. For `O=[N+]([O-])c1ccc(Oc2c(Cl)cc(S(=O)(=O)NCc3ccc(Br)cc3)cc2Cl)c(Cl)c1` [Compound 128, N-(4-bromobenzyl)-3,5-dichloro-4-(2-chloro-4-nitrophenoxy)benzenesulfonamide], the “APC Flag 8 pt” value is “−”. As to `CC(C)Oc1ccc(NS(=O)(=O)c2cc(Cl)c(Oc3ccc([N+](=O)[O-])cc3Cl)c(Cl)c2)cc1` [Compound 134, 3,5-dichloro-4-(2-chloro-4-nitrophenoxy)-N-[4-isopropoxyphenyl]benzenesulfonamide], the “APC Flag 8 pt” value was “+”. For `O=C(NCC1CC1)[C@@H]1CCCN1S(=O)(=O)c1cc(Cl)c(Oc2ccc([N+](=O)[O-])cc2Cl)c(Cl)c1` [Compound 139, N-(cyclopropylmethyl)-1-{[3,5-dichloro-4-(2-chloro-4-nitrophenoxy)phenyl]sulfonyl}prolinamide], the “APC Flag 8 pt” value was “−”. Consider `O=C(NCC1CC1)c1cccc(NS(=O)(=O)c2cc(Cl)c(Oc3ccc([N+](=O)[O-])cc3Cl)c(Cl)c2)c1` [Compound 151, N-(cyclopropylmethyl)-3-({[3,5-dichloro-4-(2-chloro-4-nitrophenoxy)phenyl]sulfonyl}amino)benzamide], for which the “APC Flag 8 pt” value is “+”.

For the compound `CN(c1cccc(Cl)c1)S(=O)(=O)c1cc(Cl)c(Oc2ccc([N+](=O)[O-])cc2Cl)c(Cl)c1` [Compound 153, 3,5-dichloro-4-(2-chloro-4-nitrophenoxy)-N-(3-chlorophenyl)-N-methylbenzenesulfonamide], the “APC Flag 8 pt” value is “−”. The same measure for `COc1ccc(Cl)cc1NS(=O)(=O)c1cc(Cl)c(Oc2ccc([N+](=O)[O-])cc2Cl)c(Cl)c1` [Compound 164, 3,5-dichloro-N-(5-chloro-2-methoxyphenyl)-(2-chloro-4-nitrophenoxy)lbenzenesulfonamide]: “+”; for `O=C(Nc1cc(Cl)ccc1Cl)N1CCC(Oc2ncccn2)CC1` [Compound 310, N-(2,5-dichlorophenyl)-4-(pyrimidin-2-yloxy)piperidine-1-carboxamide]: “−”. The same measure for `O=[N+]([O-])c1ccc(Oc2c(Cl)cc(S(=O)(=O)N3CCOCC3)cc2Cl)c(Cl)c1` [Example 15, 4-{[3,5-dichloro-4-(2-chloro-4-nitro-phenoxy)phenyl]sulfonyl}morpholine]: “−”; for `CC1CCN(S(=O)(=O)c2cc(Cl)c(Oc3ccc([N+](=O)[O-])cc3Cl)c(Cl)c2)CC1` [Example 19, 1-{[3,5-dichloro-4-(2-chloro-4-nitrophenoxy)phenyl]sulfonyl}-4-methylpiperidine]: “−”.

As for `CC1CC(C)CN(S(=O)(=O)c2cc(Cl)c(Oc3ccc([N+](=O)[O-])cc3Cl)c(Cl)c2)C1` (stereo not shown) [Example 20, 1-{[3,5-dichloro-4-(2-chloro-4-nitrophenoxy)phenyl]sulfonyl}-3,5-dimethylpiperidine], the “APC Flag 8 pt” value is “+”. Consider `O=[N+]([O-])c1ccc(Oc2c(Cl)cc(S(=O)(=O)N3CCCC3)cc2Cl)c(Cl)c1` [Example 22, 1-{[3,5-dichloro-4-(2-chloro-4-nitrophenoxy)phenyl]sulfonyl}pyrrolidine], for which the “APC Flag 8 pt” value is given as “−”. On to `N=C(NS(=O)(=O)c1cc(Cl)c(Oc2ccc([N+](=O)[O-])cc2)c(Cl)c1)c1ccc(Cl)cc1` [Example 34, 4-chloro-N-{[3,5-dichloro4-(4-nitrophenoxy)phenyl]sulfonyl}benzenecarboximidamide], for which the “APC Flag 8 pt” value is recorded as “−”.

On to `CC(=N)NS(=O)(=O)c1cc(Cl)c(Oc2ccc([N+](=O)[O-])cc2)c(Cl)c1` [Example 63, N-{[3,5-dichloro-4-(4-nitrophenoxy)phenyl]sulfonyl}ethanimidamide], for which the “APC Flag 8 pt” value is on record as “−”. In the case of `O=S(=O)(c1ccc(Oc2ccc(Cl)cc2Cl)cc1F)N1CCCCC1` [Example 119, 1-{[4-(2,4-dichlorophenoxy)-2-fluorophenyl]sulfonyl)piperidine], the “APC Flag 8 pt” value is recorded as “+”. To `O=[N+]([O-])c1ccc(Oc2c(Cl)cc(S(=O)(=O)NCC3CCCO3)cc2Cl)c(Cl)c1` (stereo not shown) [Example 121, 3,5-dichloro-4-(2-chloro-4-nitrophenoxy)-N-(tetrahydrofuran-2-ylmethyl)benzene-sulfonamide] belongs “−”. The same measure for `O=C1CCC(CCCNS(=O)(=O)c2cc(Cl)c(Oc3ccc([N+](=O)[O-])cc3Cl)c(Cl)c2)N1` (stereo not shown) [Example 122, 3,5-dichloro-4-(2-chloro-4-nitrophenoxy)-N-[3-(5-oxopyrrolidin-2-yl)propyl] benzenesulfonamide]: “+”; for `O=[N+]([O-])c1ccc(Oc2c(Cl)cc(S(=O)(=O)NCc3ccc(Cl)cc3)cc2Cl)c(Cl)c1` [Example 125, 3,5-dichloro-N-(4-chlorobenzyl)-4-(2-chloro-4-nitrophenoxy)benzenesulfonamide]: “−”; for `O=[N+]([O-])c1ccc(Oc2c(Cl)cc(S(=O)(=O)NCCCOc3cc(Cl)cc(Cl)c3)cc2Cl)c(Cl)c1` [Example 126, 3,5-dichloro-4-(2-chloro-4-nitrophenoxy)-N-[3-(3,5-dichlorophenoxy)propyl] benzenesulfonamide]: “−”. Turning to `O=[N+]([O-])c1ccc(Oc2c(Cl)cc(S(=O)(=O)NCCc3ccc(Cl)cc3Cl)cc2Cl)c(Cl)c1` [Example 127, 3,5-dichloro-4-(2-chloro-4-nitrophenoxy)-N-[2-(2,4-dichlorophenyl)ethyl]benzene-sulfonamide], the “APC Flag 8 pt” value is “+”. For the compound `COc1ccc(CCNS(=O)(=O)c2cc(Cl)c(Oc3ccc([N+](=O)[O-])cc3Cl)c(Cl)c2)cc1` [Example 129, 3,5-dichloro-4-(2-chloro-4-nitrophenoxy)-N-[2-(4-methoxyphenyl)ethyl]benzene-sulfonamide], the “APC Flag 8 pt” value is “+”. Turning to `O=[N+]([O-])c1ccc(Oc2c(Cl)cc(S(=O)(=O)NC3CCNCC3)cc2Cl)c(Cl)c1` [Example 130, 3,5-dichloro-4-(2-chloro-4-nitrophenoxy)-N-piperidin-4-ylbenzenesulfonamide], the “APC Flag 8 pt” value was “−”. The same measure for `CN(C)CCCNS(=O)(=O)c1cc(Cl)c(Oc2ccc([N+](=O)[O-])cc2Cl)c(Cl)c1` [Example 131]: “+”. As to `O=[N+]([O-])c1ccc(Oc2c(Cl)cc(S(=O)(=O)NCCN3CCOCC3)cc2Cl)c(Cl)c1` [Example 132, 3,5-dichloro-4-(2-chloro-4-nitrophenoxy)-N-(2-morpholin-4-ylethyl)benzenesulfonamide], the “APC Flag 8 pt” value is given as “−”. `O=[N+]([O-])c1ccc(Oc2c(Cl)cc(S(=O)(=O)NCc3ccncc3)cc2Cl)c(Cl)c1` [Example 133, 3,5-dichloro-4-(2-chloro-4-nitrophenoxy)-N-(pyridin-4-ylmethyl)benzenesulfonamide]: the “APC Flag 8 pt” value is given as “−”. For the compound `CNS(=O)(=O)c1cc(Cl)c(Oc2ccc([N+](=O)[O-])cc2Cl)c(Cl)c1` [Example 135, 3,5-dichloro-4-(2-chloro-4-nitrophenoxy)-N-methylbenzenesulfonamide], the “APC Flag 8 pt” value is given as “+”. For `N#Cc1ccc(N(S(=O)(=O)c2cc(Cl)c(Oc3ccc([N+](=O)[O-])cc3Cl)c(Cl)c2)S(=O)(=O)c2cc(Cl)c(Oc3ccc([N+](=O)[O-])cc3Cl)c(Cl)c2)cc1` [Example 136, 3,5-dichloro-4-(2-chloro-4-nitrophenoxy)-N-(4-cyanophenyl)-N-(1,3-dichloro-2-(2-chloro-4-nitrophenoxy)-5-sulfonylbenzene)-benzenesulfonamide], the “APC Flag 8 pt” value is reported as “+”.
